In publication PMC10179460, “Computational and Enzymatic Studies of Sartans in SARS-CoV-2 Spike RBD-ACE2 Binding: The Role of Tetrazole and Perspectives as Antihypertensive and COVID-19 Therapeutics” (International Journal of Molecular Sciences, 2023):

Target: T1, ACE2 (angiotensin-converting enzyme 2) (Homo sapiens, UniProt Q9BYF1)
T1 construct: recombinant human ACE2, His-tag and Strep-tag, from Sf9 insect cells
Assay: SPR (Biacore T200, immobilized ACE2, […] kinetic model)
Type: binding

T1 sequence (Q9BYF1 18-805): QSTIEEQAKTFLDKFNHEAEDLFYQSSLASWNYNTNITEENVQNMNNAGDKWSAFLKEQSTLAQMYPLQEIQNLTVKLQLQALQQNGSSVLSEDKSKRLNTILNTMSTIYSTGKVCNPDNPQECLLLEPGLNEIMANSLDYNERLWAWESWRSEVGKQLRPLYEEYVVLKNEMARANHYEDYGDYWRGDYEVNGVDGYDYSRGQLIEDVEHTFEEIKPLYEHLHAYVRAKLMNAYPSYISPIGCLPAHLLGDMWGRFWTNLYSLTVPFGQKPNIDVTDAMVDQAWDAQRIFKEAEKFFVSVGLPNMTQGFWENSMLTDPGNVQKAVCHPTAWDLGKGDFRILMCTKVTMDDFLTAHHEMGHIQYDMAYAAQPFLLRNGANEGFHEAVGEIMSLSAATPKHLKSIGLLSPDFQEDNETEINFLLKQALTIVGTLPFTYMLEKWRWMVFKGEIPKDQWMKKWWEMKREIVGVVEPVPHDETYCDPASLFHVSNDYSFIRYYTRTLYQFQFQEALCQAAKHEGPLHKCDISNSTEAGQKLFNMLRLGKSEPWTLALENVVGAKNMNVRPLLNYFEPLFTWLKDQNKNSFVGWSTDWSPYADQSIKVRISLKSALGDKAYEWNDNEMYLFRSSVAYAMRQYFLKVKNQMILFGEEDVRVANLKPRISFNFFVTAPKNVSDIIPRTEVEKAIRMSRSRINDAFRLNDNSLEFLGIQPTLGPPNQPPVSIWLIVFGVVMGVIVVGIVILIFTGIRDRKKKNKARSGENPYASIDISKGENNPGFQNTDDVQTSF

## CCCCc1nc(Cl)c(CO)n1Cc1ccc(-c2ccccc2-c2nn[nH]n2)cc1 [losartan]
  Kd: 13.7 nM
